Laboratory results taken from US7202239B2, “Cyclohexylphenyl carboxamides tocolytic oxytocin receptor antagonists” (Wyeth, priority 2001, dated 2007).

Key:
[1] = target: human vasopressin V1a receptor subtype (Homo sapiens, UniProt P37288); experiment: Vasopressin binding in CHO cell membranes expressing human vasopressin V1a subtype receptors; conditions: [3H]Manning ligand; for inhibition at 0.1 µM: 100 nM; for IC50: value in parentheses
Description: Vasopressin Binding in Chinese Hamster Ovary Cell Membranes Expressing Human Vasopressin V1a Subtype Receptors
Chinese hamster ovary cells (CHO cells) stably transfected with the human vasopressin V1a subtype receptors were either obtained from Biosignal Inc., 1744 rue Williams, Montreal, Quebec, Canada or obtained from M. Thibonnier, Case Western Reserve University School of Medicine, Cleveland, Ohio. A. Passaging and Amplification of Cells: CHO cells transfected with the human vasopressin V1a subtype receptors obtained from M. Thibonnier (pZeoSV vector) are allowed to grow to confluency (approx. >90%) in T-150 flasks under sterile conditions, in a cell culture medium of F-12 Nutrient Mixture (HAM) with L-glutamine (Gibco Cat. # 11765-054) containing 15 mM HEPES (Gibco Cat. 15630-080), 1% antibiotic/antimycotic (add 5 mL 100×, Gibco Cat. 15240-062 per 500 mL F-12), 250 μg/mL Zeocin (add 1.25 mL of 100 mg/mL Invitrogen R-250-01 per 500 mL F-12) and 10% Fetal Bovine Serum (Qualified, heat inactivated, Gibco Cat. # 16140-063). The medium is removed by aspiration and the cells are washed with 10 mL of Hank's Balanced Salt solution (Gibco Cat. # 14175-095). The salt solution is removed by aspiration and the cells are trypsinized with 5 mL of trypsin-EDTA (0.05% trypsin, 0.53 mM EDTA-4Na, Gibco Cat. # 25300-070) for 1 min. The trypsin is removed by aspiration and the cells dislodged by tapping. Cell Culture medium (eg, 30 mL for 1:30 split) is immediately added and mixed well to inactivate trypsin. 1 mL of detached cells is added to new culture flasks containing fresh cell culture medium (eg, into 25 mL per T-150 flask), and mixed gently. The cells are incubated at 37° C. in 5% CO2. The medium is changed at 3 to 4 days interval (or as appropriate). The cells grow to confluency (approx. >75%–95%) within 7–8 days. All steps are done under sterile conditions. B. Membrane Preparation: The cells are washed twice gently with Hank's Balanced Salt solution (e.g,. use 10 mL per T-150 flask). The excess is removed and the cells are bathed for 15–30 min. in an enzyme-free Cell Dissociation Buffer (e.g. use 8 mL Hank's Based, Gibco Cat. # 13150-016 per T-150 flask) until the cells are loosened. The contents are transferred to centrifuge tubes (50 mL) kept in an ice bath. All subsequent steps are done at 4° C. The tubes are centrifuged at 300×g for 15 min (1380 rpm on SORVAL, Model RT6000D, using rotor for the 50 mL tubes). The supernatant is discarded and the cells suspended in homogeneizing buffer(10 mM Tris-HCl containing 0.25 M sucrose and 1 mM EDTA, pH 7.4) ensuring that the volume of the buffer is about ten times the volume of the cell pellet. The cells are pooled into a centrifuge tube (50 mL) and homogenized with Polytron at setting 6 for 10 sec. The homogenate is transferred into a Potter-Elvjehm homogenizer and homogenized with 3 strokes. The homogenate is centrifuged at 1500× g for 10 min at 4° C. (3100 rpm using SORVAL, model RT6000D, using the rotor for 50 mL tubes). The pellet is discarded. The supernatant is centrifuged at 100,000×g for 60 min. at 4° C. (Beckman L8-80M ultracentrifuge; spin at 37,500 rpm with rotor type 70 Ti for 50 mL tubes; 38,000 rpm with type 80Ti for 15 mL tubes; or 35,800 rpm with rotor type 45Ti). The supernantant is discarded and the pellet suspended in 3 to 4 mL of Tris buffer (50 mM TRIS-HCl, pH 7.4). The protein content is estimated by the Bradford or Lowry method. The volume of the membrane suspension is adjusted with the membrane buffer (50 mM Tris-HCl containing 0.1% BSA and 0.1 mM PMSF) to give 3.0 mg/mL (or as appropriate) of protein. The membranes are aliquoted and stored at −70° C. C. […]

Sequence of human vasopressin V1a receptor subtype (P37288 whole entry): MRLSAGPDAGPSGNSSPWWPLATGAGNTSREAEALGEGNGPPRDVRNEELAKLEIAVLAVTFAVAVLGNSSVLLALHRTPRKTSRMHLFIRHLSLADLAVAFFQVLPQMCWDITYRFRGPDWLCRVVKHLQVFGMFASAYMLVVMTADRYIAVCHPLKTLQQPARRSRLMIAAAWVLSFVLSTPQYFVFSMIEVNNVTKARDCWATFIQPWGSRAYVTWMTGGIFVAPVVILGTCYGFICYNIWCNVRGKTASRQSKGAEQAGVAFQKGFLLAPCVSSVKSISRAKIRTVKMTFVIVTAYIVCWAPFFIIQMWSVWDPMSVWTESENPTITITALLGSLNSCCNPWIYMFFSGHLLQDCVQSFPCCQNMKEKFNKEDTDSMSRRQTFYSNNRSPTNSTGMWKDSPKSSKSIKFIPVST

inhibition at 0.1 µM [1] [%] | melting point [°C] | IC50 [1] [nM] | Compound
4 | 172 to 174 |  | O=C(c1ccc(C2CCCCC2)cc1)N1Cc2ccc(C(=O)C(Cl)(Cl)Cl)n2Cc2ccccc21 [Example 7, 2,2,2-Trichloro-1-[10-(4-cyclohexyl-benzoyl)-10,11-dihydro-5H-pyrrolo[2,1-c][1,4]benzodiazepin-3-yl]-1-ethanone]
 | 164 to 175 | 146 | CC(=NNC(=O)c1ccc2n1Cc1ccccc1N(C(=O)c1ccc(C3CCCCC3)cc1)C2)N(C)C [Example 9, N′-{[10-(4-Cyclohexyl-benzoyl)-10,11-dihydro-5H-pyrrolo[2,1-c][1,4]benzodiazepin-3-yl]carbonyl}-N,N-dimethylethanehydrazonamide]
 | 167 to 190 | 366 | CN(C)C=NNC(=O)c1ccc2n1Cc1ccccc1N(C(=O)c1ccc(C3CCCCC3)cc1)C2 [Example 10, N′-{[10-(4-Cyclohexyl-benzoyl)-10,11-dihydro-5H-pyrrolo[2,1-c][1.4]benzodiazepin-3-yl]carbonyl}-N,N-dimethylhydrazonoformamide]
 | 122 to 123 | 377 | NC(=O)c1ccc2n1Cc1ccccc1N(C(=O)c1ccc(C3CCCCC3)cc1)C2 [Example 16, 10-(4-Cyclohexyl-benzoyl)-10,11-dihydro-5H-pyrrolo[2,1-c][1,4]benzodiazepin-3-carboxamide]
 | 216 to 218 | 306 | CN(C)/C=N/C(=O)c1ccc2n1Cc1ccccc1N(C(=O)c1ccc(C3CCCCC3)cc1)C2 [Example 17]
 | 128 to 131 | 87.5 | C/C(=N\C(=O)c1ccc2n1Cc1ccccc1N(C(=O)c1ccc(C3CCCCC3)cc1)C2)N(C)C [Example 18]
 | 182 to 183 | 880 | CN(C)NC(=O)c1ccc2n1Cc1ccccc1N(C(=O)c1ccc(C3CCCCC3)cc1)C2 [Example 19, 10-(4-Cyclohexyl-benzoyl)-N′-N′-dimethyl-10,11-dihydro-5H-pyrrolo[2,1-c][1,4]benzodiazepine-3-carbohydrazide]
21 | 237 to 240 |  | CN(C)/C=C/C(=O)c1ccc2n1Cc1ccccc1N(C(=O)c1ccc(C3CCCCC3)cc1)C2 [Example 20, (E)-1-[10-(4-Cyclohexyl-benzoyl)-10,11-dihydro-5H-pyrrolo[2,1-c][1,4]benzodiazepin-3-yl]-3-(dimethylamino)-2-propen-1-one]
 | 134 to 136 | 203 | CN1CCN(C(=O)c2ccc3n2Cc2ccccc2N(C(=O)c2ccc(C4CCCCC4)cc2)C3)CC1 [Example 24, [10-(4-Cyclohexyl-benzoyl)-10,11-dihydro-5H-pyrrolo[2,1-c][1,4]benzodiazepin-3-yl](4-methyl-1-piperazinyl)-methanone]
6 | 141 to 143 |  | Cc1ccccc1N1CCN(C(=O)c2ccc3n2Cc2ccccc2N(C(=O)c2ccc(C4CCCCC4)cc2)C3)CC1 [Example 27, [10-(4-Cyclohexyl-benzoyl)-10,11-dihydro-5H-pyrrolo[2,1-c][1,4]benzodiazepin-3-yl][4-(2-methylphenyl)-1-piperazinyl]-methanone]
49 | 133 to 136 |  | CN1CCCN(C(=O)c2ccc3n2Cc2ccccc2N(C(=O)c2ccc(C4CCCCC4)cc2)C3)CC1 [Example 30, [10-(4-Cyclohexyl-benzoyl)-10,11-dihydro-5H-pyrrolo[2,1-c][1,4]benzodiazepin-3-yl](4-methyl-[1,4]-diazepan-1-yl)-methanone]
